Patent publication US8017168B2, “High-potency sweetener composition with rubisco protein, rubiscolin, rubiscolin derivatives, ace inhibitory peptides, and combinations thereof, and compositions sweetened therewith” (The Coca-Cola Company, priority 2006, dated 2011)
Ends that are not written are not given here.

How the values were obtained:
[1] = Rate of dissolution of rebaudioside A polymorph and amorphous forms in H2O at 25° C.; type: physicochemical
mice = conditions: oral administration, 100 mg per kg; cited from earlier work
[2] = Sensory evaluation of sweetness linger by expert panel, Example Set H (phosphoric acid solution pH 2.4-2.5); type: in vivo; set-up: key: 0: no sweetness linger; 1: very slight sweetness linger; 2: slight sweetness linger; 3: moderate sweetness linger; 4: moderately high sweetness linger; 5: high sweetness linger; conditions: scale 0-5; 500 ppm REBA or 10 g sugar in 100 ml, carbon-treated water, phosphoric acid pH 2.4-2.5
[3] = Sensory evaluation of sweetness linger by expert panel, Example Set G (citric acid/potassium citrate lemon-lime base); type: in vivo; set-up: key: 0: no sweetness linger; 1: very slight sweetness linger; 2: slight sweetness linger; 3: moderate sweetness linger; 4: moderately high sweetness linger; 5: high sweetness linger; conditions: scale 0-5; for sweetness linger rating of control samples: 400 ppm REBA in citric acid/potassium citrate composition, 8 g sugar in 100 ml citrate buffer; for Sweetness Linger rating (defined anchors of the protocol): sucrose, 500 ppm REBA control sample
Procedure: Sensory evaluation of the samples prepared in Example Set G was carried out under the following protocol, similar to that described hereinabove. In this test protocol, none of the samples were swallowed. All samples were expectorated and the mouth was rinsed with water after the tasting. Immediately upon sensing maximal sweetness, the sample was expectorated, the mouth was rinsed with water and the rate of sweetness decay (“Sweetness Linger”) was measured, where attention was focused on the sweetness 3-4 min after the water rinse. After sample tasting was complete, a salty oyster cracker was chewed followed by a water rinse, and at least 5 minutes followed before tasting the next sample. The sweetness linger was rated by a panel of experts in the sensory evaluation of foods and beverages using the following scale: 0=no sweetness linger, 1=very slight sweetness linger, 2=slight sweetness linger, 3=moderate sweetness linger, 4=moderately high sweetness linger, 5=high sweetness linger.
The “Sweetness Linger” rating for sucrose observed by this protocol is defined as 0. The Sweetness Linger of a 500 ppm of REBA control sample is defined as 5. Experimental samples were tasted by the same protocol, always allowing sufficient time between samples to ensure re-equilibration of the sensory system. Re-tasting of control samples during the course of the experiment was allowed and encouraged.
The comparison taste test was performed between two controls and addition of sweet taste improving additive on the onset and/or sweetness linger.
The effects of formulation change on the sweetness linger of 400 ppm REBA (equivalent to 8 g sucrose) in a citric acid/potassium citrate composition equivalent to that in a diet lemon-lime beverage were evaluated. The sweetness linger rating of this solution was determined to be 5.
8 g of sugar was dissolved in 100 ml of citrate buffer. The sweetness linger rating of this control sample was determined to be 0.

[4] = type: physicochemical
Procedure: A solution of rebaudioside A (>97% pure by HPLC) was prepared in double distilled water (12.5 gm in 50 mL, 25% concentration) by stirring the mixture at 40° C. for 5 minutes. An amorphous form of rebaudioside A was formed by immediately using the clear solution for spray drying with the Lab-Plant spray drier SD-04 instrument (Lab-Plant Ltd., West Yorkshire, U.K.). The solution was fed through the feed pump into the nozzle atomizer which atomized it into a spray of droplets with the help of a constant flow of nitrogen/air. […] This dry powder (11-12 g, H2O 6.74%) was discharged continuously from the drying chamber and was collected in a bottle.

## rebaudioside A [Form 1]
[1]; H2O, 25° C.
  Rate of dissolution in H2O at 25° C.: (<0.2%/60 %/60 minutes
[1]; grade in words
  Rate of dissolution in H2O at 25° C.: Very low

## rebaudioside A [Form 2]
[1]; H2O, 25° C.
  Rate of dissolution in H2O at 25° C.: (<30%/5 %/5 minutes
[1]; grade in words
  Rate of dissolution in H2O at 25° C.: Intermediate

## YPLDLF [rubiscolin-6]
mice
  memory consolidation: enhanced memory consolidation

## OC[C@H]1O[C@@](CO)(O[C@H]2O[C@H](CO)[C@@H](O)[C@H](O)[C@H]2O)[C@@H](O)[C@@H]1O [sucrose]
[2]
  sweetness linger rating of control samples: 0
[3]
  sweetness linger rating of control samples: 0
  Sweetness Linger rating (defined anchors of the protocol): 0

## rebaudioside A [Form 3]
[1]; H2O, 25° C.
  Rate of dissolution in H2O at 25° C.: (>30%/5 %/5 minutes
[1]; grade in words
  Rate of dissolution in H2O at 25° C.: High

## rebaudioside A
[2]
  sweetness linger rating of control samples: 5
[3]
  sweetness linger rating of control samples: 5
  Sweetness Linger rating (defined anchors of the protocol): 5

## rebaudioside A [Form 4]
[1]; H2O, 25° C.
  Rate of dissolution in H2O at 25° C.: (>35.0%/5 %/5 minutes
[1]; grade in words
  Rate of dissolution in H2O at 25° C.: High
[4]
  solubility in water at room temperature: > 35.0%
